Data reported in PMC11347161, “Sequence diversity of apidaecin-like peptides arresting the terminating ribosome” (Nucleic Acids Research, 2024).
In brackets after ≈: the same amount, converted by molar mass. Residues, ends and D or L forms follow the SMILES beside them. *: point of attachment. Orn(α-tetramethylguanidino) = CN(C)C(=N[C@@H](CCCN)C(=O)*)N(C)C

Tested on: E. coli, BL21 cells
Format: cell-based
Conditions: for MIC, TSB / MIC, LB / MIC, RPMI/Serum: E. coli BL21, broth microdilution, conducted in triplicate; for MIC, TSB: 33% TSB medium; for MIC, LB: LB medium; for MIC, RPMI/Serum: RPMI/Serum medium (RPMI-1640:MHB:FBS = 100:5:20)
Procedure: The E. coli strain CA244 (lacZ125(Am), e14-, trpA49(Am), relA1, spoT1) was obtained from Escherichia coli Genetic Stock Center. The E. coli BL21(DE3) electrocompetent cells were from Sigma. The following media and components were implemented for bacteria growth: lysogeny broth (LB), minimal M9 medium, Tryptic Soy Broth (TSB), Roswell Park Memorial Institute medium 1640 (RPMI-1640), Mueller Hinton Broth (MHB), Fetal Bovine Serum (FBS). For various experiments E. coli cells were grown either in LB, in 33% TSB ([21]), in M9 medium supplemented with 1% Glycerol, 1 mM MgSO4, 0.1 mM CaCl2 and 10 μg/ml thiamine, or in RPMI/Serum (RPMI-1640:MHB:FBS = 100:5:20) ([23]).
The minimal inhibitory concentration (MIC) test was performed using the broth microdilution method, adapted from the previously described procedure ([28]). The MIC tests were conducted in triplicate either in LB, 33% TSB or RPMI/Serum media.
In order to quantitatively assess the antimicrobial activity of the synthesized peptides identified by both, the negative and positive selection strategies, we determined their minimal inhibitory concentrations (MICs) for the E. coli BL21 cells in three different media: LB, as a standard laboratory medium, 33% TSB, as a medium in which PrAMPs show increased antibacterial properties ([21]), and in the more therapeutically relevant RPMI/serum media ([23]) (Table 1). […] It appears, therefore, that the positive selection strategy is more prone to identifying biologically active peptides in comparison with the negative selection approaches. Furthermore, it became apparent that some multiple substitutions can even improve the antibacterial properties of the Api-like peptides.

SMILES	MIC, TSB	MIC, LB	MIC, RPMI/Serum	MIC values relative to wt Api (E. coli BL21, peptides from depletion selection)
CC[C@H](C)[C@H](NC(=O)[C@H](Cc1ccc(O)cc1)NC(=O)[C@@H](NC(=O)[C@@H]1CCCN1C(=O)[C@H](CCCNC(=N)N)NC(=O)[C@H](CC(N)=O)NC(=O)[C@H](CC(N)=O)NC(=O)[C@H](CCCN)N=C(N(C)C)N(C)C)C(C)C)C(=O)N1CCC[C@H]1C(=O)N[C@@H](CCCNC(=N)N)C(=O)N1CCC[C@H]1C(=O)N[C@@H](CCCNC(=N)N)C(=O)N1CCC[C@H]1C(=O)N1CCC[C@H]1C(=O)N[C@@H](Cc1c[nH]cn1)C(=O)N1CCC[C@H]1C(=O)N[C@@H](CCCNC(=N)N)C(=O)N[C@@H](CC(C)C)C(=O)O [Api 137, reference compound] ({Orn(α-tetramethylguanidino)}-NNRPVYIPRPRPPHPRL-OH; N-terminus and C-terminus assumed)	0.25 µM (≈ 0.573 µg/mL)	4 µM (≈ 9.17 µg/mL)	0.0625 µM (≈ 0.143 µg/mL)	
CC(C)C[C@H](NC(=O)[C@H](CCCNC(=N)N)NC(=O)[C@@H]1CCCN1C(=O)[C@H](Cc1c[nH]cn1)NC(=O)[C@H](Cc1ccc(O)cc1)NC(=O)[C@@H]1CCCN1C(=O)[C@H](CCCNC(=N)N)NC(=O)[C@@H]1CCCN1C(=O)[C@@H](NC(=O)[C@H](CS)NC(=O)[C@H](Cc1c[nH]c2ccccc12)NC(=O)[C@H](CCC(N)=O)NC(=O)[C@@H](NC(=O)[C@H](CCCCN)NC(=O)[C@H](CCCNC(=N)N)NC(=O)[C@H](CC(N)=O)NC(=O)[C@H](CC(N)=O)NC(=O)[C@H](CCCN)N=C(N(C)C)N(C)C)C(C)C)C(C)C)C(=O)O [K5Q7W8C9V10Y14] ({Orn(α-tetramethylguanidino)}-NNRKVQWCVPRPYHPRL-OH; C-terminus assumed)	>64 µM	>64 µM	>64 µM	
CC(C)C[C@H](NC(=O)[C@@H]1CCCN1C(=O)[C@H](CCC(N)=O)NC(=O)[C@@H]1CCCN1C(=O)[C@H](CC(C)C)NC(=O)[C@H](Cc1ccc(O)cc1)NC(=O)[C@@H](NC(=O)[C@@H]1CCCN1C(=O)[C@H](CCCNC(=N)N)NC(=O)[C@H](CC(N)=O)NC(=O)[C@H](CC(N)=O)NC(=O)[C@H](CCCN)N=C(N(C)C)N(C)C)C(C)C)C(=O)NCC(=O)N1CCC[C@H]1C(=O)NCC(=O)N1CCC[C@H]1C(=O)N[C@@H](CCCNC(=N)N)C(=O)N[C@@H](C)C(=O)O [L8L12G13G15A18] ({Orn(α-tetramethylguanidino)}-NNRPVYLPQPLGPGPRA-OH; C-terminus assumed)	>64 µM	>64 µM	>64 µM	
CSCC[C@H](NC(=O)[C@H](CCCNC(=N)N)NC(=O)[C@@H]1CCCN1C(=O)[C@H](Cc1ccc(O)cc1)NC(=O)[C@@H]1CCCN1C(=O)[C@H](Cc1ccccc1)NC(=O)[C@H](Cc1ccc(O)cc1)NC(=O)[C@@H](NC(=O)[C@@H]1CCCN1C(=O)[C@H](CCCNC(=N)N)NC(=O)[C@H](C)NC(=O)[C@H](CC(N)=O)NC(=O)[C@H](CCCN)N=C(N(C)C)N(C)C)C(C)C)C(=O)N1CCC[C@H]1C(=O)N[C@@H](Cc1c[nH]cn1)C(=O)N1CCC[C@H]1C(=O)N[C@@H](CCCNC(=N)N)C(=O)N[C@@H](CC(C)C)C(=O)O [Peptide A3F8Y10M13] ({Orn(α-tetramethylguanidino)}-NARPVYFPYPRMPHPRL-OH; C-terminus assumed)	16 µM (≈ 37.2 µg/mL)	>64 µM	8 µM (≈ 18.6 µg/mL)	
CC[C@H](C)[C@H](NC(=O)[C@H](Cc1ccc(O)cc1)NC(=O)[C@@H](NC(=O)[C@@H]1CCCN1C(=O)[C@H](CCCNC(=N)N)NC(=O)[C@H](CC(N)=O)NC(=O)[C@H](CC(N)=O)NC(=O)[C@H](CCCN)N=C(N(C)C)N(C)C)C(C)C)C(=O)NCC(=O)N[C@@H](CCC(=O)O)C(=O)N1CCC[C@H]1C(=O)N[C@@H](CCCNC(=N)N)C(=O)N1CCC[C@H]1C(=O)N1CCC[C@H]1C(=O)N[C@@H](CC(N)=O)C(=O)N1CCC[C@H]1C(=O)N[C@@H](CCCNC(=N)N)C(=O)N[C@@H](CC(C)C)C(=O)O [Peptide G9E10N15] ({Orn(α-tetramethylguanidino)}-NNRPVYIGEPRPPNPRL-OH; C-terminus assumed)	>64 µM	>64 µM	>64 µM	
CC[C@H](C)[C@H](NC(=O)[C@H](Cc1ccc(O)cc1)NC(=O)[C@@H](NC(=O)[C@@H]1CCCN1C(=O)[C@H](CCCNC(=N)N)NC(=O)[C@H](CC(N)=O)NC(=O)[C@H](CCCCN)NC(=O)[C@H](CCCN)N=C(N(C)C)N(C)C)C(C)C)C(=O)N[C@@H](CC(N)=O)C(=O)N[C@@H](CCC(N)=O)C(=O)N1CCC[C@H]1C(=O)N[C@@H](CCCNC(=N)N)C(=O)N[C@@H](CCC(=O)O)C(=O)N1CCC[C@H]1C(=O)N[C@@H](Cc1c[nH]cn1)C(=O)N1CCC[C@H]1C(=O)N[C@@H](CCCNC(=N)N)C(=O)N[C@@H](CC(C)C)C(=O)O [Peptide K2N9E13] ({Orn(α-tetramethylguanidino)}-KNRPVYINQPREPHPRL-OH; C-terminus assumed)	>64 µM	>64 µM	>64 µM	
CC(C)C[C@H](NC(=O)[C@H](CCCNC(=N)N)NC(=O)[C@@H]1CCCN1C(=O)[C@H](Cc1c[nH]cn1)NC(=O)[C@@H]1CCCN1C(=O)[C@H](CO)NC(=O)[C@H](CCCNC(=N)N)NC(=O)[C@@H]1CCCN1C(=O)[C@@H](NC(=O)[C@H](CC(N)=O)NC(=O)[C@H](Cc1ccc(O)cc1)NC(=O)[C@H](Cc1ccc(O)cc1)NC(=O)[C@@H](NC(=O)[C@@H]1CCCN1C(=O)[C@H](CCCNC(=N)N)NC(=O)[C@H](CCCCN)NC(=O)[C@H](CC(N)=O)NC(=O)[C@H](CCCN)N=C(N(C)C)N(C)C)C(C)C)[C@@H](C)O)C(=O)O [Peptide K3Y8N9T10S13] ({Orn(α-tetramethylguanidino)}-NKRPVYYNTPRSPHPRL-OH; C-terminus assumed)	>64 µM	>64 µM	>64 µM	
CC[C@H](C)[C@H](NC(=O)[C@H](Cc1ccc(O)cc1)NC(=O)[C@H](CCCCN)NC(=O)[C@@H]1CCCN1C(=O)[C@H](CCCNC(=N)N)NC(=O)[C@H](CC(N)=O)NC(=O)[C@H](CC(N)=O)NC(=O)[C@H](CCCN)N=C(N(C)C)N(C)C)C(=O)N1CCC[C@H]1C(=O)N[C@@H](CCSC)C(=O)N1CCC[C@H]1C(=O)N[C@@H](CCCNC(=N)N)C(=O)N1CCC[C@H]1C(=O)N1CCC[C@H]1C(=O)N[C@@H](Cc1c[nH]cn1)C(=O)N1CCC[C@H]1C(=O)N[C@@H](CCCNC(=N)N)C(=O)N[C@@H](CC(C)C)C(=O)O [Peptide K6M10] ({Orn(α-tetramethylguanidino)}-NNRPKYIPMPRPPHPRL-OH; C-terminus assumed)	0.5 µM (≈ 1.15 µg/mL)	8 µM (≈ 18.4 µg/mL)	1 µM (≈ 2.3 µg/mL)	comparable to those of wt Api
CC(C)C[C@H](NC(=O)[C@H](CCCNC(=N)N)NC(=O)[C@H](CC(C)C)NC(=O)[C@H](Cc1c[nH]cn1)NC(=O)[C@@H]1CCCN1C(=O)CNC(=O)[C@H](CC(C)C)NC(=O)[C@@H]1CCCN1C(=O)[C@H](CCC(N)=O)NC(=O)[C@@H]1CCCN1C(=O)[C@H](CC(C)C)NC(=O)[C@H](Cc1ccc(O)cc1)NC(=O)[C@@H](NC(=O)[C@@H]1CCCN1C(=O)[C@H](CCCNC(=N)N)NC(=O)[C@H](CC(N)=O)NC(=O)[C@H](CC(N)=O)NC(=O)[C@H](CCCN)N=C(N(C)C)N(C)C)C(C)C)C(=O)O [Peptide L8L12G13L16] ({Orn(α-tetramethylguanidino)}-NNRPVYLPQPLGPHLRL-OH; C-terminus assumed)	>64 µM	>64 µM	>64 µM	
CC[C@H](C)[C@H](NC(=O)[C@H](Cc1ccc(O)cc1)NC(=O)[C@H](CCSC)NC(=O)[C@@H]1CCCN1C(=O)[C@H](CCCNC(=N)N)NC(=O)[C@H](CC(N)=O)NC(=O)[C@H](CC(N)=O)NC(=O)[C@H](CCCN)N=C(N(C)C)N(C)C)C(=O)N[C@@H](C)C(=O)N[C@@H](CCC(N)=O)C(=O)N1CCC[C@H]1C(=O)N[C@@H](CCCNC(=N)N)C(=O)N1CCC[C@H]1C(=O)N[C@@H](Cc1ccc(O)cc1)C(=O)N[C@@H](Cc1c[nH]cn1)C(=O)N1CCC[C@H]1C(=O)N[C@@H](CCCNC(=N)N)C(=O)N[C@@H](CC(C)C)C(=O)O [Peptide M6A9Y14] ({Orn(α-tetramethylguanidino)}-NNRPMYIAQPRPYHPRL-OH; C-terminus assumed)	16 µM (≈ 37.4 µg/mL)	>64 µM	16 µM (≈ 37.4 µg/mL)	
CC[C@H](C)[C@H](NC(=O)CNC(=O)[C@@H](NC(=O)[C@H](CCC(=O)O)NC(=O)[C@H](CCC(N)=O)NC(=O)[C@H](CC(N)=O)NC(=O)[C@H](CC(N)=O)NC(=O)[C@H](CCCN)N=C(N(C)C)N(C)C)C(C)C)C(=O)N[C@@H](CCSC)C(=O)N[C@@H](CCC(N)=O)C(=O)N1CCC[C@H]1C(=O)N[C@@H](CCCNC(=N)N)C(=O)N1CCC[C@H]1C(=O)N1CCC[C@H]1C(=O)N[C@@H](Cc1c[nH]cn1)C(=O)N1CCC[C@H]1C(=O)N[C@@H](CCCNC(=N)N)C(=O)N[C@@H](CC(C)C)C(=O)O [Peptide Q4E5G7M9] ({Orn(α-tetramethylguanidino)}-NNQEVGIMQPRPPHPRL-OH; C-terminus assumed)	>64 µM	>64 µM	>64 µM	
